According to publication PMC10115881, “Disrupting the α-synuclein-ESCRT interaction with a peptide inhibitor mitigates neurodegeneration in preclinical models of Parkinson’s disease” (Nature Communications, 2023):

How the values were obtained:
[1] = tested on: A53T a-syn; assay: Human a-syn immunoblot of cortical neuron lysates; assay type: cell-based; details: neuronal lysates
Protocol: Pregnant rats (E17) of the Sprague-Dawley strain were purchased from Envigo. Embryos were surgically removed from the mothers and cortices dissected in Hanks Balanced salt solution (Gibco). The meninges were removed, and cells were dissociated using a papain dissociation system (Worthington) before being resuspended in Neurobasal medium A supplemented with antibiotic-antimycotic solution (Gibco), L-glutamine substitute (GlutaMAX™; Gibco) and factor B27 (Gibco). Cells were plated on poly-D-lysine coated glass coverslips at a density of 5 × 10^5 cells/well, or on poly-D-lysine coated six-well cell culture plates at a density of 2 × 10^6 cells/well, and incubated at 37 °C in 5% CO2 with half media changes every 3 days. Cells were transduced with A53T a-syn or EV AAVs at 2 days post-isolation at a MOI of 3000. After 3 days, media containing AAV vectors were removed. […] Cells were fixed with 4% paraformaldehyde (PFA) for immunofluorescence staining or lysed for immunoblotting at 8 days post-isolation.
Infected neurons were scraped from 6-well dishes and lysed with RIPA buffer containing protease inhibitor cocktail (Roche). The Triton-X-100 soluble fraction was then separated from the insoluble pellet by centrifugation. Protein concentration was quantified using the DC protein assay (BioRad). […]

[2] = tested on: pS129 a-syn puncta; assay: PFF-induced a-syn seeding, pS129 a-syn puncta in cortical neurons; assay type: cell-based, rat
Protocol: PFFs synthesized from recombinant human a-syn were added to primary neuronal cultures to seed recruitment of endogenous a-syn into pS129 a-syn^+ aggregates. Recombinant human a-syn PFFs were purchased from StressMarq Biosciences (SPR-322B). Cells were plated on poly-D-lysine coated glass coverslips in 24-well cell culture plates at a density of 5 × 10^5 cells/well, and incubated at 37 °C in 5% CO2 with half media changes every 3 days. […] On day 8 post-isolation, cells were treated with 1.5 µg of recombinant a-syn PFFs. […]
Confocal images of primary cortical neurons, iPSC-derived dopaminergic neurons, and LAMP1 staining within the SN were processed using Imaris software (Oxford instruments). […] Mean pixel intensity per GFP^+ cell (for experiments using GFP-tagged peptides) or RFP^+ cell (for experiments using RFP-tagged peptides) was calculated for a-syn or LAMP1 signal using the software’s surfaces module. The software’s surfaces module was used to identify GFP^+/NeuN^+ cells, and number of pS129 a-syn^+ puncta per GFP^+/NeuN^+ cortical neuron was counted using the software’s spots module. Mean pixel intensity per RFP^+/NeuN^+ cortical neuron was calculated for Rab7, cathepsin B, or cathepsin D signals using the software’s surfaces module. […]

[3] = tested on: Δa-syn(103–140); assay: Truncated a-syn (103-140 lacking) HA immunofluorescence in rat cortical neurons; assay type: cell-based; details: a-syn lacking amino acids 103–140
From the text: Adeno-associated virus (AAV) of a 1/2 serotype was used to express A53T a-syn (AAV-A53T), a truncated version of A53T a-syn lacking amino acids 103–140 (Δa-syn(103–140)), and WT a-syn, fused to either the N-terminal half of YFP (AAV-V1S) or the C-terminal half of YFP (AAV-SV2), all under the control of the CAG promoter, a hybrid of the chicken beta-actin (CBA) promoter fused with the cytomegalovirus (CMV) immediate early enhancer sequence (GeneDetect Ltd.)[46].
Pregnant rats (E17) of the Sprague-Dawley strain were purchased from Envigo. Embryos were surgically removed from the mothers and cortices dissected in Hanks Balanced salt solution (Gibco). […]
After fixation, cells were permeabilized with 0.2% Triton-X-100 for 15 min, washed three times with PBS and then incubated with blocking solution (1% BSA, 22.52 mg/mL glycine, 0.1% Tween-20 in PBS or 0.4% saponin, 1% BSA, and 5% goat or donkey serum in PBS) for 1 h. […] Following another three washes with PBS, nuclei were counterstained with DAPI (ThermoFisher) and then coverslips were mounted on slides using Dako fluorescence mounting medium (Agilent) and sealed using clear nail varnish.

[4] = tested on: a-syn in iPSC-derived dopaminergic neurons; assay: a-syn fluorescence in iPSC-derived dopaminergic neurons; assay type: cell-based, human; details: A53T a-syn iPSC-derived dopaminergic neurons
Protocol: A53T a-syn iCell Dopa neurons (catalog #R1109) and isogenic control iCell Dopa neurons (catalog #R1088) were purchased from Fujifilm Cellular Dynamics (Madison, WI, USA) and cultured as per the manufacturer’s instructions. Briefly, cells were plated in complete maintenance medium provided by the manufacturer on poly-L-ornithine/laminin coated μ plates (ibidi). Cells recovered from thawing for 24 h and then were transduced with AAV-Scramble1.3-RFP or AAV-PDpep1.3-RFP at MOI of 3000 for 48 h at which time media was completely changed. Cells were fixed using 4% PFA at 7 days post-plating.
Confocal images of immunofluorescent staining were acquired with a Zeiss LSM880 confocal microscope equipped with 405, 488, 555, and 639 nm laser lines. All images were taken within the linear range at constant gain and pinhole settings at optimal resolution settings determined by the software. […]
Confocal images of primary cortical neurons, iPSC-derived dopaminergic neurons, and LAMP1 staining within the SN were processed using Imaris software (Oxford instruments). […] Mean pixel intensity per GFP^+ cell (for experiments using GFP-tagged peptides) or RFP^+ cell (for experiments using RFP-tagged peptides) was calculated for a-syn or LAMP1 signal using the software’s surfaces module. […]

For DEEIERQLKALG [PDpep1.3], the “Effect on total A53T a-syn protein” value [1] was “corresponding reduction in total A53T a-syn protein levels”, the “Effect on endogenous a-syn aggregates” value [2] was “reduced the number of endogenous a-syn aggregates” and the “Effect on truncated a-syn levels” value [3] was “did not reduce levels of this truncated a-syn”. The “Effect on a-syn levels, iPSC neurons” value [4] was “returned levels of a-syn, including oligomeric a-syn, as well as LAMP1 levels to those of isogenic controls”.
